Measurements from patent publication US20210386705A1, “APPLICATION OF CHIGLITAZAR AND RELATED COMPOUNDS THEREOF” (SHENZHEN CHIPSCREEN BIOSCIENCES CO., LTD., priority 2018, published 2021).
“And” between values parts separate entries of the source, which are not always exact repeats. Identical values can stand only once.

Columns and labels:
[1] = tested on: monocytic cell line THP-1; assay: MCP-1-induced chemotaxis of THP-1 cells (Transwell); format: cell-based, human; conditions: MCP-1 10 ng/mL, compound 3 μmol/L
Source text: In an in vitro model, migration of the monocytic cell line THP-1 induced by a certain concentration of chemokines (such as monocyte chemotactic protein 1, MCP-1), and accordingly such in vivo process was mimicked. Transwell technology, according to the manufacturer's instructions from Corning Inc., is considered that Traswell is a kind of a polycarbonate membrane filter as well as a permeable holder. The polycarbonate membrane divides a culture chamber into upper and lower ones, where the components of the culture medium in the lower chamber can affect the growth, differentiation and movement of the cells in upper chamber. Finally, the cell migration ability can be reflected by staining and counting the cells in the lower chamber.
When cultured to the log phase stage, THP-1 cells were resuspended, adjusted the concentration, and seeded in 24-well plates, followed by being pretreated with the culture media containing the compound to be tested (sodium chiglitazar) or the reference compound GFT505, pioglitazone, or PPARγ single agonist rosiglitazone (all purchased from Selleck) for 24 hours. Transwells were used according to the manufacturer's instructions. The culture media containing chemokine MCP-1 were added to the lower chamber (i.e., the bottom of the 24-well plates), and the cell suspension was added to the upper chamber and cultured for 4 hours. Later, the cells cultured on the “ceiling” surface of the polycarbonate membrane were fixed and stained with crystal violet solution (FIG. 6), and then the number of cells in the lower chamber was counted (Table 3).

PPARδ = biological target: T1, PPARδ (Homo sapiens, UniProt Q03181); assay: PPAR reporter gene model in L-02 cells, PPARδ; format: cell-based; conditions: luciferase reporter, 24 hours drug, read-out: Half-maximal activation concentration of reporter gene AC50, PPARδ
T1 construct: expressed in transfected cells; host or cells: human hepatocyte cell line L-02
T1 sequence (Q03181 1-441): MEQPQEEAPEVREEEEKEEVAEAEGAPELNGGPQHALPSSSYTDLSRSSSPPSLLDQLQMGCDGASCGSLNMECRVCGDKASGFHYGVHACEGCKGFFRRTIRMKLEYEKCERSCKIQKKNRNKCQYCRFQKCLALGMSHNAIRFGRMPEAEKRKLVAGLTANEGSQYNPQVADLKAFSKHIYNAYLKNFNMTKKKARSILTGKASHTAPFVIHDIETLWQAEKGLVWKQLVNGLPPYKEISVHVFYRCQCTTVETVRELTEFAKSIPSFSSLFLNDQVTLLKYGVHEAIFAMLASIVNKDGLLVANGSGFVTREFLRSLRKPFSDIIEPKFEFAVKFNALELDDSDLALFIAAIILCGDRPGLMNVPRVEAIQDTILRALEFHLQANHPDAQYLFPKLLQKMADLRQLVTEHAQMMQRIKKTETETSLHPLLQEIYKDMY
T1 sequence (P19793 1-462 partner): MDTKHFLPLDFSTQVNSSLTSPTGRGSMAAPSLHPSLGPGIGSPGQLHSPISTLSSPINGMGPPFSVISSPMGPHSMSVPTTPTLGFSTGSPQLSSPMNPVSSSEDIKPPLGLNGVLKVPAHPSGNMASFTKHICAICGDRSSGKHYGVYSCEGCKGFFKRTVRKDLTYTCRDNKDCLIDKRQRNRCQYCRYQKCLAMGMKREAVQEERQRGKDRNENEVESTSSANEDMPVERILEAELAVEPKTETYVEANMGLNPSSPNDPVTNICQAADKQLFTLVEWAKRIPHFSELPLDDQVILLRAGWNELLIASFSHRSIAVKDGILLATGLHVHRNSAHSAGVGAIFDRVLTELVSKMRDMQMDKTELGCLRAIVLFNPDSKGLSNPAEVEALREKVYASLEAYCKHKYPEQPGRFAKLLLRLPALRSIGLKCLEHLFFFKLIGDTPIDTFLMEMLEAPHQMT
Method: (§1) The PPAR reporter gene model comprises three subtypes of expression plasmids, RXR expression plasmid, plasmid with luciferase reporter gene, and GFP expression plasmid as an external reference. The human hepatocyte cell line L-02 cells were seeded into 96-well plates at the density of 15,000 cells/well with about 50% plating rate, followed by culturing for 24 hours at 37° C. […] The fluorescence intensity (at wavelength 485-527 nm) of green fluorescent protein (GFP) in each well was firstly detected as an internal standard by a fluorescence detector, and then 30 μL of luciferase substrates (Promega, E151A) were added to each well. After slightly shaking to mix well, the […] were detected. The relative reporter gene activation intensity was obtained by the ratio of the fluorescence detection signal of the drugs to be tested to that of the solvent control, with both the signals normalized to the internal standard GFP signal. The half-maximal activation (AC50) of the drugs to be tested was calculated with the activity at various concentrations (shown in Table 1).

PPARα = biological target: T2, PPARα (Homo sapiens, UniProt Q07869); assay: PPAR reporter gene model in L-02 cells, PPARα; format: cell-based; conditions: luciferase reporter, 24 hours drug, read-out: Half-maximal activation concentration of reporter gene AC50, PPARα
T2 construct: expressed in transfected cells; host or cells: human hepatocyte cell line L-02
T2 sequence (Q07869 1-468): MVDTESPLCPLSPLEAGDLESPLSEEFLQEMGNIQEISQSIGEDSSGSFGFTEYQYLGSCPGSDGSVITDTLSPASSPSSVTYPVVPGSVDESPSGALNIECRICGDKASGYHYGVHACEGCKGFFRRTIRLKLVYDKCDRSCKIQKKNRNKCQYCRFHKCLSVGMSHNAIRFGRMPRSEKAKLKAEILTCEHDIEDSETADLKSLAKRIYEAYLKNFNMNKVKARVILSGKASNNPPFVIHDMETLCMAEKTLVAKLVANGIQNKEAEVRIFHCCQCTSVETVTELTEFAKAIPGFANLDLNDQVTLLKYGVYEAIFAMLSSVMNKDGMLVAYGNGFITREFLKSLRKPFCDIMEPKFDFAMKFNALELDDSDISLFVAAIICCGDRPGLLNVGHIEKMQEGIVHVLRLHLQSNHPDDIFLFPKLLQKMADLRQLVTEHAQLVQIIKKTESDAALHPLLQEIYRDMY
Method: as §1

[2] = 24 hours pretreatment, 4 hours migration

For `O=C(c1ccc(F)cc1)c1ccccc1N[C@@H](Cc1ccc(OCCn2c3ccccc3c3ccccc32)cc1)C(=O)[O-].[Na+]` [sodium chiglitazar], the “Cell concentration in lower chamber, Mean value” [1, 2] was 10012 cells/ml, the “Cell concentration in lower chamber, single replicates” value [1, 2] was 10630 cells/ml and 9760 cells/ml and 9646 cells/ml and the “Inhibition of migration activity of THP-1 induced by monocyte chemokine (in words)” value ([1]; Table 3 and FIG. 6) was “significantly inhibited”. It also gave a Migration rate ([1]; solvent control + MCP-1 = 100) of 33.12%, an AC50 (PPARδ) of 708 nM and an AC50 (PPARα) of 1100 nM.
